Reference: patent publication US7589239B2, “Therapeutic agents for the treatment of cancer, metabolic diseases and skin disorders” (Auspex Pharmaceuticals, priority 2005, dated 2009)

Target: T1, human RAR-β (Homo sapiens, UniProt P10826)
T1 sequence (P10826 1-455): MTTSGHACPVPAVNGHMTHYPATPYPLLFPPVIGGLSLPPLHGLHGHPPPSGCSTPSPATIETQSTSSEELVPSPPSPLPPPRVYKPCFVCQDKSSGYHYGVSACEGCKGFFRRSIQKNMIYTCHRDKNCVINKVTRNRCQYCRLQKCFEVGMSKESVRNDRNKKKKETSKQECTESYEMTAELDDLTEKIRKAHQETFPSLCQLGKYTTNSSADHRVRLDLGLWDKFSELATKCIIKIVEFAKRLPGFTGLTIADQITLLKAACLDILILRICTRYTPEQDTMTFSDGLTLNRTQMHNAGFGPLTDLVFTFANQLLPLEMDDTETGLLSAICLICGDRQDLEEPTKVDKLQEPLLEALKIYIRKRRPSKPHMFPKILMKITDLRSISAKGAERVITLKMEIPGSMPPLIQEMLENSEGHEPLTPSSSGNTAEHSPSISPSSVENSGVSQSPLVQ
Experiment: Co-transfection assay (luciferase reporter induction in transfected COS-7 cells)
Experimental: The following assay is a measure of the in-vitro binding affinity of the given compound with human RAR-β in COS-7 cells. Binding of the compound to RAR-β will induce transcription of luciferase within the cells. This level of transcription can be quantified based on the amount of luminescence emitted after incubation of the cell lysate with luciferin.
COS-7 cells were cultured in Dulbecco Modified Eagle's Medium (DMEM) with 4 mM L-glutamine, 4.5 g/L glucose 1.5 g/L sodium bicarbonate and supplemented with 10% fetal bovine serum. Cells were transfected using the calcium phosphate:DNA co-precipitation method. A 10-cm plate of cells was transfected with 5 μg of luciferase reporter construct, 5 μg of expression vector for β-galactosidase, 1 μg of expression vector for RAR-β, and pUC19 as carrier, to a total of 20 μg.
β-galactosidase (5 μg) was included in each transfection to monitor transfection efficiency. Cells were incubated 6 hours at 37° C. in a CO2 incubator. The cells were re-suspended in fresh media containing 10% serum (96-well plate, 15000 cells per well) with or without compound (in 0.5% DMSO) and the plates were incubated at 37° C. in a CO2 incubator. Lysis buffer (1×) was added to cover the cells and the plates were incubated at ambient temperature for 15 min. Luciferase and β-galactosidase assays were performed 36 hours post-transfection, and the normalized luciferase response was determined as relative light units divided by β-galactosidase activity. Composition of 5× lysis buffer is 125 mM. Tris (pH 7.8) with H3PO4 10 mM trans-1,2 diaminocyclohexane-N,N,N′,N′-tetraaceticacid (CDTA), 10 mM dithiothereitol (DTT), 50% glycerol, 5% triton X-100.

SMILES	fold induction at 3 µM	fold induction at 10 µM	fold induction at 40 µM	fold induction at 0.001 µM	fold induction at 0.03 µM	fold induction at 0.1 µM
COc1ccc(-c2ccc3cc(B(O)O)ccc3c2)cc1C12CC3CC(CC(C3)C1)C2 [Example 10, 6-[-3-(1-Adamandyl)-4-methoxyphenyl)-2-naphthoboronic acid]	2.1	3.6				
COc1ccc(-c2ccc3cc(B4OC(C)(C)C(C)(C)O4)ccc3c2)cc1C12CC3CC(CC(C3)C1)C2 [Example 9, 2-[6-(3-(1-Adamandyl)-4-methoxyphenyl)-naphthalen-2-yl]-4,4,5,5-tetramethyl[1,3,2]dioxaborolane]	2		6			
CC1=C(/C=C/C(C)=C/C=C/C(C)=C/C(=O)O)C(C)(C)CCC1 [ATRA, all-trans-retinoic acid, reference compound]				9.3	13.7	19.1
